Assay results as given in patent US10117950B2, “Compounds and compositions for the treatment of ocular disorders” (Graybug Vision, Inc., priority 2015, dated 2018).
Read-outs that look alike come from different tables or passages of the source.

Key:
[1] = Determination of drug solubility; assay type: physicochemical; conditions: for solubility: thermodynamic from solid
Method: For each test, approximately 5-10 mg was transferred to a 10 mL glass vial. Aqueous or organic solvent was added to each vial to achieve an overall concentration of 50 mg/mL. After vortexing aggressively for 2-3 minutes and sonicating in a bath sonicator for 5 minutes, undissolved drug was spun down at 1200 rpm for 5 minutes to generate a pellet. The supernatant was collected and filtered through a 0.2 μm nylon syringe filter into HPLC vials for drug content analysis. Drug concentration was determined by comparing against a standard calibration curve.

[2] = In vitro stability of bifunctional conjugates (HPLC, 254 nm); assay type: physicochemical; conditions: PBS pH 7.0, 20% DMSO; one day
Method: Briefly, brinzolamide-PLA (n=4)-succinate-5-hydroxy-sunitinib (60-1) or dorzolamide-PLA (n=4)-succinate-5-hydroxy-sunitinib (58-5) was first dissolved in a solution of PBS (pH 7.0) with 20% DMSO (v/v) and incubated at 37° C. or 60° C. for 14 days.

[3] = molecular target: T1, bovine erythrocyte carbonic anhydrase II (Bos taurus, UniProt P00921); assay: Carbonic anhydrase II inhibition, colorimetric 4-nitrophenyl acetate hydrolysis; assay type: biochemical
T1 construct: purified bovine erythrocyte carbonic anhydrase II; from tissue; host or cells: bovine erythrocytes
T1 sequence (P00921 whole entry): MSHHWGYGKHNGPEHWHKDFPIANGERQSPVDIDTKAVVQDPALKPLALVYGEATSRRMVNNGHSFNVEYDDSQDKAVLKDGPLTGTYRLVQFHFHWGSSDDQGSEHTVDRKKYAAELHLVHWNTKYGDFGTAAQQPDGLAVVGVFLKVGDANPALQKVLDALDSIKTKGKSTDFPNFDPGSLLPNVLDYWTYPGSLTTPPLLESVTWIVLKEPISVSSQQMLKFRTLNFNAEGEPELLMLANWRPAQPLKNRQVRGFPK
Method: The catalytic activity of carbonic anhydrase II was assessed by a colorimetric method, in which 4-nitrophenyl acetate is hydrolyzed to acetate and nitrophenolate. The nitrophenolate ionizes to generate a bright yellow anion that is readily detected by measuring its absorbance at 350-400 nm. […] Acetazolamide was added as a positive control and 100% DMSO was added as a negative control. The reaction was initiated with the addition of 20 μL of 4-nitrophenyl acetate (0.7 mM in ethanol).

[4] = In vitro stability of latanoprost NCEs (RP-HPLC); assay type: physicochemical; conditions: PBS pH 7.0, 20% DMSO, 37° C., 14 days
Method: Latanoprost and latanoprost-PLA conjugates were solubilized with the addition of 20% (v/v) DMSO and subsequently suspended to a concentration of 1 mg/mL in PBS (pH 7.0).

[5] = DMSO, organic solvent or mixture, read-out: Solubility DMSO
[6] = water / aqueous solvent, read-out: Solubility Water

solubility [1, 5] [mg/mL]	solubility [1, 6] [mg/mL]	degradation kinetics [2]	carbonic anhydrase inhibitory activity [3]	IC50 ([3]; n = 2) [nM]	solubility ([1]; DCM, organic solvent or mixture, read-out: Solubility DCM) [mg/mL]	solubility ([1]; organic solvent (not named), organic solvent or mixture, organic solvent, read-out: organic solubility) [mg/mL]	Solubility Water ([1]; water / aqueous solvent)	in vitro stability [4]	SMILES
> 50	< 1	rapidly decreasing after one day	lowest inhibitory activity	222 ± 36.3					CCN[C@H]1C[C@H](C)S(=O)(=O)c2sc(S(=O)(=O)NC(=O)[C@H](C)OC(=O)[C@H](C)OC(=O)[C@H](C)OC(=O)[C@H](C)OC(=O)CCC(=O)Oc3ccc4c(c3)/C(=C/c3[nH]c(C)c(C(=O)NCCN(CC)CC)c3C)C(=O)N4)cc21 [58-5, dorzolamide-PLA(n=4)-succinate-5-hydroxy-Sunitinib]
> 50	< 1				> 50	> 50	very low aqueous solubility	good stability	CC(C)OC(=O)CCC/C=C\C[C@@H]1[C@@H](CC[C@@H](O)CCc2ccccc2)[C@H](O)C[C@@H]1O [Latanoprost, latanoprost, reference compound]
